Laboratory results from patent US8367829B2, “Bi-functional pyrazolopyridine compounds” (Gilead Sciences, Inc., priority 2010, dated 2013).
pEC50, pIC50: −log10 of the molar value.

Key:
[1] = molecular target: T1, human recombinant beta-2 adrenoreceptors (Homo sapiens, UniProt P07550); assay: Functional agonism of human recombinant beta-2 adrenoreceptors expressed in CHO cells (cAMP, HTRF); type: cell-based; conditions: cAMP elevation, 30 min
T1 construct: expressed in transfected cells; host or cells: CHO cells
T1 sequence (P07550 whole entry): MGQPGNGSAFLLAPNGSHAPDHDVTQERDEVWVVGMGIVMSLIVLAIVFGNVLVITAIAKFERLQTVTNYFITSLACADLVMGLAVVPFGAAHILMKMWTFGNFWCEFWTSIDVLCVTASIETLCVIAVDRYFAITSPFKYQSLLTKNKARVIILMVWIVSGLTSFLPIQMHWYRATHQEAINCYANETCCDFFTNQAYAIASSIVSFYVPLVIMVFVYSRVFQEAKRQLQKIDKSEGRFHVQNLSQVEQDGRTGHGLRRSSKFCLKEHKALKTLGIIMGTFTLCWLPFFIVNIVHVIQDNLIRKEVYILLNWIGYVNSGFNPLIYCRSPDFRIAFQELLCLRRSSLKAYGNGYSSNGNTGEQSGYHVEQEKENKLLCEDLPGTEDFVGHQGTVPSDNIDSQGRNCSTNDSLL
Procedure: Functional Agonism of Human Recombinant Beta-2 Adrenoreceptors Expressed in Chinese Hamster Oocytes (CHO)
Test compounds were incubated for 30 min with CHO cells expressing the human recombinant beta-2 adrenoreceptors. Agonism of the receptor was measured by the elevation of intracellular cyclic-AMP over control levels detected using a homogeneous time resolved fluorescence (HTRF) format. Compounds were determined to be “full” or “partial” agonists based on the maximum level of cAMP accumulated compared to the control compound isoproterenol which is a full agonist in this assay system. Concentration response curves were generated for test compounds and the EC50 (molar concentration of the agonist which produced 50% of the maximal response for that compound) was determined. These assays were performed using a protocol based on the original description of the assay by Baker, J. G. (2005) Brit. J. Pharmacol.; 144:317-322.
EC50 determinations for the compounds presented above are seen in the third column of Table 1 (Beta 2 EC50).

[2] = test system: LPS-induced TNF-α release from human peripheral blood mononuclear cells (PBMC); assay: Inhibition of LPS-induced TNF-α release from human PBMC; type: cell-based; conditions: LPS 0.4 ng/mL, 6 h, presence or absence of ICI-118551 not given
Description: Inhibition of Lipopolysaccharide (LPS)-Induced Tumour Necrosis Factor Alpha (TNF-α) Release from Human Peripheral Blood Mononuclear Cells (PBMC)
Human whole blood was drawn from donors and cell purification initiated within two hours. Peripheral blood mononuclear cells (PBMC) were purified using a standard Ficoll gradient purification technique and aliquoted at a concentration of 100,000 cells/well in 96 well plates. Beta-2 adrenoreceptor agonists are also anti-inflammatory for some immune cells expressing the receptor and in this assay they can inhibit tumor necrosis factor-alpha (TNF-α) production. Therefore PBMC were pre-incubated for 30 min in the presence of the beta-2 adrenoreceptor antagonist ICI-118551 (3-(isopropylamino)-1-[(7-methyl-4-indanyl)oxy]butan-2-ol) (10 μM) to determine the PDE4 directed activity of test compounds, and in the absence of ICI-118551 for the combined PDE4 and beta-2 receptor directed activity. Test compounds were dissolved in DMSO and diluted in buffer (final DMSO concentration of 0.1% v/v) and were then added to the cell suspensions and pre-incubated for a further 1 h at 37° C. LPS solution was then added (0.4 ng/mL) and the cells incubated for a further 6 h. At the end of the incubation period the cell supernatants were collected and TNF-α was measured using a Procarta Cytokine Assay Kit (Affymetrix, Santa Clara, Calif.) according to the manufacturers' instructions. Data were analyzed using MiraiBio Masterplex QT v4.0 software (MasterPlex Version 1.0.1.18 Copyright 2008, Hitachi Software Engineering Co., Ltd) and used to extrapolate Mean Fluorescence Intensity (MFI) into concentrations of TNF-α and mean values from replicate wells were determined. Inhibition curves were plotted using a nonlinear curve fit employing a single-site binding model to determine the IC50 value for each test compound in the presence or absence of ICI-118551 using GraphPad Prism 5 for Windows, version 5.02 (GraphPad Software, San Diego Calif.).
EC50 determinations for the compounds presented above are seen in the fourth column of Table 1 (PBMC TNF EC50).

[3] = molecular target: T1, human recombinant beta-2 adrenoreceptors; assay: Beta-2 adrenoceptor binding assay, displacement of [3H](−)CGP-12177; conditions: CHO cells expressing human beta-2 adrenoreceptors, [3H](−)CGP-12177 0.3 nM, 120 min
Procedure: Beta-2 Adrenoceptor Binding Assay
Test compounds were incubated for 120 min with Chinese hamster oocyte (CHO) cells expressing the human recombinant beta-2 adrenoreceptors. Binding of test compounds to the beta-2 adrenoreceptors was determined by measuring the displacement of the radiolabeled ligand [^3H](−)CGP-12177 (0.3 nM) from the receptor measured by a scintillation counting. Concentration response curves were generated for test compounds and the IC50 (molar concentration of the compound which produced 50% inhibition for the maximal response for that compound) was determined. These assays were performed using a protocol based on the original description of the assay by Joseph et al., (2004) Naun.-Sch. Arch. Pharm.; 369:525-532.
IC50 determinations for the compounds presented above are seen in the second column of Table 1 (Beta 2 IC50).

[4] = molecular target: T2, Human recombinant PDE4B2 (Homo sapiens, UniProt Q07343); assay: Inhibition of PDE4B2 enzyme activity (PDE Glo Assay); type: biochemical; conditions: human recombinant PDE4B2, 50 nM cAMP; read-out: PDE4 IC50
T2 construct: purchased BPS Bioscience
T2 sequence (Q07343 1-564 isoform Q07343-2): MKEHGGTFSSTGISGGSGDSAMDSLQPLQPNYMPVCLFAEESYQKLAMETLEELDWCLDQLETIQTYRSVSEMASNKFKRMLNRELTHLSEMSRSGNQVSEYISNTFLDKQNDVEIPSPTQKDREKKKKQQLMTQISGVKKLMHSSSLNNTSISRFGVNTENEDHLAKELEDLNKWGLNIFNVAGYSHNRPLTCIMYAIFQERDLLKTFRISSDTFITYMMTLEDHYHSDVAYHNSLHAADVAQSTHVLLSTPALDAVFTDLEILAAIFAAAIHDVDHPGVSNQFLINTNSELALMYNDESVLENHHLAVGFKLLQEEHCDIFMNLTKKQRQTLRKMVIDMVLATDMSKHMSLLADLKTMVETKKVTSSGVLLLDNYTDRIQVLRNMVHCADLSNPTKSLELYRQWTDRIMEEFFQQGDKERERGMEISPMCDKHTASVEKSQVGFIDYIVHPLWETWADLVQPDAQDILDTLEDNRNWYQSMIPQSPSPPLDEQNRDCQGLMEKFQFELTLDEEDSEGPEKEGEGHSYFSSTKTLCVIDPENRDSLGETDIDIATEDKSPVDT
Procedure: Inhibition of PDE4B4 Enzyme Activity
The inhibitory activity of test compounds were determined using the PDE Glo Assay (Promega, V1361). The PDE-Glo Reaction Buffer was prepared (1 mL 5× buffer+4 mL water) and 150 nM solution of test compound dissolved in the Reaction Buffer, followed by 1:3 serial dilutions into Reaction Buffer. […] Human recombinant PDE4B2 (BPS Bioscience) was added to test compound in Reaction Buffer at a concentration of 0.12 nM per reaction. The enzyme and test compound were pre-incubated together at rt for 10 min. 50 nM of the enzyme substrate cAMP was then added to initiate the enzyme reaction, with the reaction terminated after one hour. Termination Buffer (1 mL 5× termination buffer+3.9 mL water+100 μL of 100 mM IBMX (ICN Chemicals, in DMSO)), was added to each reaction well to terminate the reaction. Detection Buffer (1 mL 5×PDE-Glo Detection buffer+3.96 mL water+40 μL PKA (supplied in kit)) was added to the cAMP-enzyme-test compound mix and this secondary reaction proceeded for 20 minutes at rt. An equal volume of Kinase Glo Reagent was then added to the reaction mixture and after 10 min luminescence was measured using a luminometer (EnVision, 0.1 sec read for luminescence). Luminescence values were […] related to levels of cAMP in the reaction mixture. Data were plotted as relative light units (RLU) versus test compound concentration and the IC50 determined using GraphPad Prism 5.0, using a nonlinear curve fit in a single-site binding model.
IC50 determinations for the compounds presented above are seen in the first column of Table 1 (PDE4 IC50).

For `CCc1nc2c(cnn2CC)c(NC2CCOCC2)c1CNC(=O)CCCCCCCNC[C@H](O)c1ccc(O)c2[nH]c(=O)ccc12` [Example 10, (R)—N-[[1,6-Diethyl-4-[(tetrahydro-2H-pyran-4-yl)amino]-1H-pyrazolo[3,4-b]pyridin-5-yl]methyl]-8-[[2-hydroxy-2-(8-hydroxy-2-oxo-1,2-dihydroquinolin-5-yl)ethyl]amino]octanamide], the pEC50 [1] was over 7.00, the pEC50 [2] was over 7.00 and the pIC50 [3] was under 6.52. It also gave a pIC50 [4] of over 7.00.

With `CCc1nc2c(cnn2CC)c(NC2CCOCC2)c1CNC(=O)Nc1ccc(CCCCCNC[C@H](O)c2ccc(O)c3[nH]c(=O)ccc23)cc1` [Example 12, (R)-1-((1,6-diethyl-4-((tetrahydro-2H-pyran-4-yl)amino)-1H-pyrazolo[3,4-b]pyridin-5-yl)methyl)-3-(4-(5-((2-hydroxy-2-(8-hydroxy-2-oxo-1,2-dihydroquinolin-5-yl)ethyl)amino)pentyl)phenyl)urea] the pEC50 [1] was over 7.00, the pEC50 [2] was over 7.00 and the pIC50 [3] was over 7.00. It also gave a pIC50 [4] of over 7.00.
